# Measured values from ChEMBL document CHEMBL1122449, “Anticoccidial derivatives of 6-azauracil. 5. Potentiation by benzophenone side chains” (J Med Chem, 1983).
# Test system: Eimeria tenella
# Assay: Anticoccidial activity which controlled infection by Eimeria tenella in Leghorn cockerels
# Format: functional
# Conditions: read-out: MEC
row,SMILES,minimal effective concentration [µg/mL]
1,Cc1cc(Br)ccc1C(=O)c1ccc(-n2ncc(=O)[nH]c2=O)cc1Cl,8
2,O=C(c1ccc(Cl)cc1Cl)c1ccc(-n2ncc(=O)[nH]c2=O)cc1Cl,4
3,O=C(c1ccc(-n2ncc(=O)[nH]c2=O)cc1)c1cccs1,> 250
4,Cc1cc(C)c(C(=O)c2ccc(-n3ncc(=O)[nH]c3=O)cc2)c(C)c1,> 250
5,Cc1ccc(C(=O)c2ccc(-n3ncc(=O)[nH]c3=O)cc2)cc1,> 250
6,Cc1cc(-n2ncc(=O)[nH]c2=O)ccc1C(=O)c1ccccc1Cl,60
7,O=c1cnn(-c2ccc(C(O)c3ccc(Cl)cc3)c(Cl)c2)c(=O)[nH]1 (stereo not given),2
8,Cc1cc(-n2ncc(=O)[nH]c2=O)ccc1C(O)c1ccc(Cl)cc1 (stereo not given),15
9,O=C(c1ccccc1)c1cc(-n2ncc(=O)[nH]c2=O)ccc1Cl,> 250
10,COc1ccc(C(=O)c2ccc(-n3ncc(=O)[nH]c3=O)cc2)cc1,125
11,Cc1cc(-n2ncc(=O)[nH]c2=O)ccc1C(=O)c1ccc(C#N)cc1,125
12,Cc1cc(Cl)ccc1C(=O)c1ccc(-n2ncc(=O)[nH]c2=O)cc1C,15
13,O=C(c1ccccc1)c1ccc(-n2ncc(=O)[nH]c2=O)cc1Cl,15
14,CC(=O)c1ccc(-n2ncc(=O)[nH]c2=O)cc1,> 250
15,Cc1cc(-n2ncc(=O)[nH]c2=O)ccc1Cc1ccccc1,30
16,Cc1cc(-n2ncc(=O)[nH]c2=O)cc(C)c1C(=O)c1ccc(Cl)cc1,15
17,O=C(c1ccccc1)c1cccc(-n2ncc(=O)[nH]c2=O)c1,> 250
18,O=c1cnn(-c2ccc(-c3ccc4oc5ccc(Cl)cc5c(=O)c4c3)cc2)c(=O)[nH]1,> 250
19,O=C(c1ccc(Cl)cc1)c1ccc(-n2ncc(=O)[nH]c2=O)cc1,30
20,Cc1cc(-n2ncc(=O)[nH]c2=O)ccc1C(=O)c1ccc(Cl)cc1,8
21,O=C(c1ccc(Cl)cc1)c1ccc(-n2ncc(=O)[nH]c2=O)cc1Cl,2
22,O=C(c1ccccc1)c1ccc(-n2ncc(=O)[nH]c2=O)cc1,60
23,Cc1cc(-n2ncc(=O)[nH]c2=O)cc(Cl)c1C(=O)c1ccc(Cl)cc1,8
24,CC(=O)c1ccc(-n2ncc(=O)[nH]c2=O)cc1Cl,125
25,CCCC(=O)c1ccc(-n2ncc(=O)[nH]c2=O)cc1,> 60
26,Cc1cc(-n2ncc(=O)[nH]c2=O)ccc1C(=O)c1ccccc1,8
27,Cc1cc(-n2ncc(=O)[nH]c2=O)ccc1C(O)c1ccccc1 (stereo not given),30
28,Cc1cc(-n2ncc(=O)[nH]c2=O)ccc1C(=O)c1ccc(Cl)cc1Cl,4
29,Cc1cc(-n2ncc(=O)[nH]c2=O)cc(C)c1C(O)c1ccc(Cl)cc1 (stereo not given),30

# Test system: not listed separately
# Assay: Apparent pKa value was measured in 2:1 DMF/H2O.
# Format: physicochemical
# Conditions: not given
row,SMILES,pH1/2
1,Cc1cc(C)c(C(=O)c2ccc(-n3ncc(=O)[nH]c3=O)cc2)c(C)c1,7.16
2,Cc1cc(-n2ncc(=O)[nH]c2=O)ccc1C(=O)c1ccccc1Cl,7.08
3,Cc1cc(-n2ncc(=O)[nH]c2=O)ccc1C(=O)c1ccc(C#N)cc1,7.08
4,O=C(c1ccccc1)c1ccc(-n2ncc(=O)[nH]c2=O)cc1Cl,7.04
5,CC(=O)c1ccc(-n2ncc(=O)[nH]c2=O)cc1,6.53
6,Cc1cc(-n2ncc(=O)[nH]c2=O)ccc1C(=O)c1ccc(Cl)cc1,7.6
7,O=C(c1ccc(Cl)cc1)c1ccc(-n2ncc(=O)[nH]c2=O)cc1Cl,7.16
8,O=C(c1ccccc1)c1ccc(-n2ncc(=O)[nH]c2=O)cc1,7.79

# Test system: Eimeria acervulina
# Assay: Anticoccidial activity which controlled infection by Eimeria acervulina in Leghorn cockerels
# Conditions: read-out: MEC
row,SMILES,minimal effective concentration [µg/mL]
1,CSc1ccc(C(=O)c2ccc(-n3ncc(=O)[nH]c3=O)cc2Cl)cc1,> 30

# Test system: Eimeria necatrix
# Assay: Anticoccidial activity which controlled infection by Eimeria necatrix in Leghorn cockerels; MEC means minimum effective concentration in parts per million.
# Format: functional
# Conditions: read-out: MEC
row,SMILES,minimal effective concentration [µg/mL]
1,CS(=O)(=O)c1ccc(C(=O)c2ccc(-n3ncc(=O)[nH]c3=O)cc2Cl)cc1,> 15

# Test system: not listed separately
# Assay: Plasma half-life of the compound.
# Format: ADME
# Conditions: not given
row,SMILES,half-life [h]
1,Cc1cc(-n2ncc(=O)[nH]c2=O)ccc1C(=O)c1ccc(Cl)cc1,13
2,O=C(c1ccc(Cl)cc1)c1ccc(-n2ncc(=O)[nH]c2=O)cc1Cl,20
3,Cc1cc(-n2ncc(=O)[nH]c2=O)cc(Cl)c1C(=O)c1ccc(Cl)cc1,21
4,Cc1cc(-n2ncc(=O)[nH]c2=O)ccc1C(=O)c1ccc(Cl)cc1Cl,45

# Test system: not listed separately
# Assay: Apparent pKa value was measured in 1:1 DMF/H2O.
# Format: physicochemical
# Conditions: not given
row,SMILES,pH1/2
1,Cc1cc(-n2ncc(=O)[nH]c2=O)ccc1C(=O)c1ccccc1,7.02
2,Cc1cc(-n2ncc(=O)[nH]c2=O)ccc1C(O)c1ccccc1 (stereo not given),7.37
